Laboratory results taken from patent US20090233937A1 (TAKEDA PHARMACEUTICAL COMPANY LIMITED, priority 2008, published 2009).

These molecules were tested against T1, HER2 kinase (HER2 intracellular domain) (Homo sapiens, UniProt P04626) (assay: Determination of HER2 kinase inhibitory activity). Conditions: compound at 1.0 μL (so in the source), [γ-32P]ATP, poly-Glu:Tyr (4:1) substrate.
T1 construct: made in house; host or cells: SF-21 insect cells infected with recombinant baculovirus BAC-HER2
Format: biochemical
Set-up: concentration or dose not given beside the values
Description: Human HER2 gene was cloned by RT-PCR using total RNA prepared from MCF7 cells as a template. The primer used for RT-PCR was prepared in consideration of the information of nucleotide sequence (Genbank Accession No. M11730) of HER2 gene by adding a nucleotide sequence encoding DYKDDDD peptide and a restriction enzyme recognition sequence to a nucleotide sequence (corresponding to 2176-3918 of Genbank Accession No. M11730 as a base, 676-1255 amino acids of Genbank Accession No. NP_004439 as a protein) encoding the HER2 intracellular domain region such that the protein contains an N-terminal DYKDDDD peptide tag. The primer nucleotide sequence is shown below.
(§1) SF-21 cells were sown at 1×10^6 cells/mL in Sf-900II SFM medium (1 L, Invitrogen) containing 10% fetal bovine serum (trace), 50 mg/L gentamicin (Invitrogen) and 0.1% Pluronic F-68 (Invitrogen), and shaking culture was performed using a 2 L volume Erlenmeyer flask at 27° C., 100 rpm. After culturing for 24 hr, recombinant baculovirus BAC-HER2 (13.4 mL) was added, and the mixture was further cultured for 3 days. The culture medium was centrifuged at 2,000 rpm for 5 min to give virus-infected cells. The infected cells were washed with a phosphate buffered saline (Invitrogen), centrifuged under the same conditions, and the cells were preserved at −80° C. The cryopreserved cells were thawed in ice, suspended in buffer A (50 mM Tris buffer (30 mL, pH 7.4) containing 20% glycerol, 0.15 M NaCl) supplemented with Complete Protease Inhibitor (Boehringer), and ruptured 3 times with a Polytron homogenizer (Kinematica) at 20,000 rpm for 30 sec. The ruptured solution was clarified by centrifugation at 40,000 rpm for 30 min, and filtered with a 0.45 μm filter. The filtrate was passed through a column packed with Anti-FLAG M2 Affinity Gel (4 mL, Sigma-Aldrich) at a flow rate of about 0.5 mL/min. The column was washed with buffer A, and eluted with buffer A containing 100 μg/mL of FLAG peptide. The eluent was concentrated with Vivaspin 20 (Vivascience) having a molecular weight cut off of 30K. The concentrate was purified by gel filtration using Hi Load 16/60 Superdex 200 pg (GE Healthcare Bioscience) equilibrated with buffer A. The fractions containing HER2 intracellular domain were collected and cryopreserved at −80° C.
HER2 kinase reaction was performed using a 96 well plate. As a buffer for kinase reaction, a buffer having a composition of 50 mM Tris-HCl (pH 7.5), 5 mM MnCl2, 2 mM dithiothreitol, 0.01% Tween-20 was used. The compound of the present invention was dissolved in dimethyl sulfoxide (DMSO), and diluted with the kinase reaction buffer so that DMSO concentration would be 0.1% during kinase reaction. This compound solution (10 μL) was mixed with a kinase reaction buffer (20 μL) containing HER2 intracellular domain (0.625 μg/mL) obtained in Experimental Example 1B and polypeptide substrate poly-Glu:Tyr (4:1) (Sigma Ltd., 12.5 μg/mL), and the mixture was stood at room temperature for 5 min. Then, a kinase reaction buffer (20 μL) containing 125 μM ATP and 45 μCi/mL [γ-^32P]ATP was added, and the kinase reaction was initiated with 50 μL of the final reaction mixture. A kinase reaction was performed at room temperature for 10 min, and the kinase reaction was quenched by addition of 20% TCA solution (50 μL). The mixture after completion of the reaction was stood at room temperature for 30 min, and acid insoluble fractions in the mixture after completion of the reaction were collected in a 96 well GF/C filter plate (PerkinElmer) using a cell harvester (PerkinElmer). Thereafter, the filter containing the acid insoluble fractions was washed with 3% phosphoric acid solution. After washing, the filter plate was dried at 45° C. for 60 min, and 25 μL of MicroScinti 0 (PerkinElmer) was added. The radioactivity was measured using TopCount (PerkinElmer). HER2 kinase inhibitory rate (%) of the test compound was calculated by the following formula: […]

T1 sequence (P04626 676-1255): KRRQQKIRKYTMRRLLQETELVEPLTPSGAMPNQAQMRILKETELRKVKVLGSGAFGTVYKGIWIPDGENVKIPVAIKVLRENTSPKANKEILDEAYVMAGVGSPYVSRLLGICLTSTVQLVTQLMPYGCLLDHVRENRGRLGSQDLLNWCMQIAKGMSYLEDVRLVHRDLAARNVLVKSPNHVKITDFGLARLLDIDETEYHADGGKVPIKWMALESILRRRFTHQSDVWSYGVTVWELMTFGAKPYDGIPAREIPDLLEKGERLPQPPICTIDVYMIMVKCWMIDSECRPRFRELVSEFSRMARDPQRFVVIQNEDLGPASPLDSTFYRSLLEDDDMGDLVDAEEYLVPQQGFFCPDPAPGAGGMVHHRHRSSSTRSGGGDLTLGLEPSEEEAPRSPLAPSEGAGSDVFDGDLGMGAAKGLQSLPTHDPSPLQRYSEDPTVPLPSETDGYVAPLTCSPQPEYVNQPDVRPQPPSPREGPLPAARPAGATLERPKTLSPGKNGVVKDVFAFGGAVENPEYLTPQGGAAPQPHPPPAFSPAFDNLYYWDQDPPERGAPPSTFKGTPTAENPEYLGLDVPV

`Clc1cc(N2CCn3ccc4ncnc2c43)ccc1Oc1cccc2sncc12` [Example 13, 4-[4-(1,2-benzoisothiazol-4-yloxy)-3-chlorophenyl]-5,6-dihydro-4H-pyrrolo[3,2,1-de]pteridine] and `CC(=O)NCCn1ccc2ncnc(Nc3ccc(Oc4cccc5sncc45)c(Cl)c3)c21` [Example 4, N-[2-(4-{[4-(1,2-benzoisothiazol-4-yloxy)-3-chlorophenyl]amino}-5H-pyrrolo[3,2-d]pyrimidin-5-yl)ethyl]acetamide] are the same in “inhibitory rate (%) at 1.0 μL” value: 100% for the first, 100% for the second.

Compared with `OCCn1ccc2ncnc(Nc3ccc(Oc4ccc5cnsc5c4)c(Cl)c3)c21` [Example 20, 2-(4-{[4-(1,2-benzoisothiazol-6-yloxy)-3-chlorophenyl]amino}-5H-pyrrolo[3,2-d]pyrimidin-5-yl)ethanol], `Cc1cc(Nc2ncnc3ccn(CCO)c23)ccc1Oc1cccc2sncc12` [Example 31, 2-(4-{[4-(1,2-benzoisothiazol-4-yloxy)-3-methylphenyl]amino}-5H-pyrrolo[3,2-d]pyrimidin-5-yl)ethanol] is higher in “inhibitory rate (%) at 1.0 μL” value: 98% for the first, 100% for the second.

First: COc1cc(Nc2ncnc3ccn(CCO)c23)ccc1Oc1cccc2sncc12 [Example 44, 2-(4-{[4-(1,2-benzoisothiazol-4-yloxy)-3-methoxyphenyl]amino}-5H-pyrrolo[3,2-d]pyrimidin-5-yl)ethanol]
Second: CC(C)(N)C(=O)NCCn1ccc2ncnc(Nc3ccc(Oc4cccc5sncc45)c(Cl)c3)c21 [Example 60, N-[2-(4-{[4-(1,2-benzoisothiazol-4-yloxy)-3-chlorophenyl]amino}-5H-pyrrolo[3,2-d]pyrimidin-5-yl)ethyl]-2-methylalaninamide]
The “inhibitory rate (%) at 1.0 μL” value of the first is lower: 98% for the first, 100% for the second.

First: Cl.Cn1c(Cl)cc2ncnc(Nc3ccc(Oc4cccc5sncc45)c(Cl)c3)c21 [Example 2, N-[4-(1,2-benzoisothiazol-4-yloxy)-3-chlorophenyl]-6-chloro-5-methyl-5H-pyrrolo[3,2-d]pyrimidin-4-amine hydrochloride]
Second: CC(C)(CO)C(=O)NCCn1ccc2ncnc(Nc3cc(F)c(Oc4cccc5sncc45)c(Cl)c3)c21 [Example 52, N-[2-(4-{[4-(1,2-benzoisothiazol-4-yloxy)-3-chloro-5-fluorophenyl]amino}-5H-pyrrolo[3,2-d]pyrimidin-5-yl)ethyl]-3-hydroxy-2,2-dimethylpropanamide]
The “inhibitory rate (%) at 1.0 μL” value of the first is higher: 100% for the first, 99% for the second.

Each molecule was assayed against T2, EGFR kinase (EGFR intracellular domain) (Homo sapiens, UniProt P00533) (assay: Determination of EGFR kinase inhibitory activity). Conditions: compound at 1.0 μL (so in the source), [γ-32P]ATP, poly-Glu:Tyr (4:1) substrate.
T2 construct: made in house; host or cells: SF-21 insect cells infected with recombinant baculovirus BAC-EGFR
Format: biochemical
Set-up: concentration or dose not given beside the values
Description: Human EGFR gene was cloned by RT-PCR using total RNA prepared from A431 cells as a template. The primer used for RT-PCR was prepared in consideration of the information of nucleotide sequence (Genbank Accession No. X00588) of EGFR gene by adding a nucleotide sequence encoding DYKDDDD peptide and a restriction enzyme recognition sequence to a nucleotide sequence (corresponding to 2191-3819 of Genbank Accession No. X00588 as a base, 669-1210 amino acids of Genbank Accession No. NP_005219 as a protein) encoding the EGFR intracellular domain region such that the protein contains an N-terminal DYKDDDD peptide tag. The primer nucleotide sequence is shown below.
as §1, with “hrs,” for “hr,”, “BAC-EGFR” for “BAC-HER2”, “EGFR” for “HER2”
EGFR kinase reaction was performed using a 96 well plate. As a buffer for kinase reaction, a buffer having a composition of 50 mM Tris-HCl (pH 7.5), 5 mM MnCl2, 2 mM dithiothreitol, 0.01% Tween-20 was used. The compound of the present invention was dissolved in dimethyl sulfoxide (DMSO), and diluted with the kinase reaction buffer so that DMSO concentration would be 0.1% during kinase reaction. This compound solution (10 μL) was mixed with a kinase reaction buffer (20 μL) containing EGFR intracellular domain (0.625 μg/mL) obtained in Experimental Example 2B and polypeptide substrate poly-Glu:Tyr (4:1) (Sigma Ltd., 12.5 μg/mL), and the mixture was stood at room temperature for 5 min. […] A kinase reaction was performed at room temperature for 10 min, and the kinase reaction was quenched by addition of 20% TCA solution (50 μL). The mixture after completion of the reaction was stood at room temperature for 30 min, and acid insoluble fractions in the mixture after completion of the reaction were collected in a 96 well GF/C filter plate (PerkinElmer) using a cell harvester (PerkinElmer). Thereafter, the filter containing the acid insoluble fractions was washed with 3% phosphoric acid solution. After washing, the filter plate was dried at 45° C. for 60 min, and 25 μL of MicroScinti 0 (PerkinElmer) was added. The radioactivity was measured using TopCount (PerkinElmer). EGFR kinase inhibitory rate (%) of the test compound was calculated by the following formula:
Inhibitory rate (%)=(1−(count of test compound−blank)÷(control−blank))×100

T2 sequence (P00533 669-1210): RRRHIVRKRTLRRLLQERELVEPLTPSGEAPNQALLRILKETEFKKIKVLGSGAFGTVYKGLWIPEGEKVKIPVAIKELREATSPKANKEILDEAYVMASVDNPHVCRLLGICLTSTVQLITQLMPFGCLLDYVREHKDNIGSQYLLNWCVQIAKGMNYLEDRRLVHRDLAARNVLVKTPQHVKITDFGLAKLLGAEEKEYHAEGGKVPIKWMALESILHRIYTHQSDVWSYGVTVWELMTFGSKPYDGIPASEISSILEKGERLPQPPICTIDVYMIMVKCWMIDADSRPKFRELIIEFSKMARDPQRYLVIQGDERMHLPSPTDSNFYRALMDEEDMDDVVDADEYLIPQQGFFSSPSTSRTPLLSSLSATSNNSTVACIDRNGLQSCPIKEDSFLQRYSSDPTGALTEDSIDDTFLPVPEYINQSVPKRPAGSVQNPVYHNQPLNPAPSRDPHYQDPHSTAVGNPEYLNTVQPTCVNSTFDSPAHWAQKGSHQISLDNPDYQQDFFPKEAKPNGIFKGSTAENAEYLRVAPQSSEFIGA

`OCCn1ccc2ncnc(Nc3ccc(Oc4cccc5sncc45)c(Br)c3)c21` [Example 45] and `Cn1ccc2ncnc(Nc3ccc(Oc4cccc5sncc45)c(Cl)c3)c21` [Example 1, N-[4-(1,2-benzoisothiazol-4-yloxy)-3-chlorophenyl]-5-methyl-5H-pyrrolo[3,2-d]pyrimidin-4-amine] are the same in “inhibitory rate (%) at 1.0 μL” value: 99% for the first, 99% for the second.

Compared with `CS(=O)(=O)CC(=O)NCCn1ccc2ncnc(Nc3ccc(Oc4cccc5sncc45)c(Cl)c3)c21.CS(=O)(=O)O` [Example 24, N-[2-(4-{[4-(1,2-benzoisothiazol-4-yloxy)-3-chlorophenyl]amino}-5H-pyrrolo[3,2-d]pyrimidin-5-yl)ethyl]-2-(methylsulfonyl)acetamide methanesulfonate], `CC(C)(N)CC(=O)NCCn1ccc2ncnc(Nc3ccc(Oc4cccc5sncc45)c(Cl)c3)c21` [Example 62, 3-amino-N-[2-(4-{[4-(1,2-benzoisothiazol-4-yloxy)-3-chlorophenyl]amino}-5H-pyrrolo[3,2-d]pyrimidin-5-yl)ethyl]-3-methylbutanamide] is lower in “inhibitory rate (%) at 1.0 μL” value: 100% for the first, 99% for the second.

Compared with `CC(C)(CO)C(=O)NCCn1ccc2ncnc(Nc3ccc(Oc4cccc5sncc45)c(Cl)c3)c21` [Example 10, N-[2-(4-{[4-(1,2-benzoisothiazol-4-yloxy)-3-chlorophenyl]amino}-5H-pyrrolo[3,2-d]pyrimidin-5-yl)ethyl]-3-hydroxy-2,2-dimethylpropanamide], `CC(=O)NCCn1ccc2ncnc(Nc3ccc(Oc4cccc5nscc45)c(Cl)c3)c21` [Example 12, N-[2-(4-{[4-(2,1-benzoisothiazol-4-yloxy)-3-chlorophenyl]amino}-5H-pyrrolo[3,2-d]pyrimidin-5-yl)ethyl]acetamide] is lower in “inhibitory rate (%) at 1.0 μL” value: 98% for the first, 95% for the second.
